Experimental data taken from the supplement of paper PMC10307832.

Assays:
Experiment in all cases: relative viability (nuclei count vs DMSO), 5 days (fraction); higher = more cells survive
COR-L23 = tested on: COR-L23
How it was run: (§1)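 Medians of duplicate plates are given as relative viability. That measure is the nuclei count in treated wells divided by the count in vehicle wells. Counts were taken on 4× images of lung cancer cell lines in 1536-well plates, 5 days after pin-tool dosing the day after seeding with one drug alone or a fixed anchor-drug dose plus five library-drug doses (not always all listed) in √10 steps.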

ChaGo-K-1 = tested on: ChaGo-K-1
How it was run: as §1

EMC-BAC-2 = tested on: EMC-BAC-2
How it was run: as §1

HARA = tested on: HARA
How it was run: as §1

HCC-15 = tested on: HCC-15
How it was run: as §1

HCC-366 = tested on: HCC-366
How it was run: as §1

HCC-78 = tested on: HCC-78
How it was run: as §1

HOP-62 = tested on: HOP-62
How it was run: as §1

LC-2-ad = tested on: LC-2-ad
How it was run: as §1

NCI-H1395 = tested on: NCI-H1395
How it was run: as §1

NCI-H1793 = tested on: NCI-H1793
How it was run: as §1

NCI-H1944 = tested on: NCI-H1944
How it was run: as §1

NCI-H1993 = tested on: NCI-H1993
How it was run: as §1

NCI-H2023 = tested on: NCI-H2023
How it was run: as §1

NCI-H2126 = tested on: NCI-H2126
How it was run: as §1

NCI-H2228 = tested on: NCI-H2228
How it was run: as §1

NCI-H23 = tested on: NCI-H23
How it was run: as §1

NCI-H2405 = tested on: NCI-H2405
How it was run: as §1

NCI-H838 = tested on: NCI-H838
How it was run: as §1

SK-LU-1 = tested on: SK-LU-1
How it was run: as §1

Structure (SMILES): CC(=O)O[C@@]12CO[C@@H]1C[C@H](O)[C@@]1(C)C(=O)[C@H](O)C3=C(C)[C@@H](OC(=O)[C@H](O)[C@@H](NC(=O)OC(C)(C)C)c4ccccc4)C[C@@](O)([C@@H](OC(=O)c4ccccc4)[C@H]21)C3(C)C [Docetaxel] + CC1(C)CCC(c2ccc(Cl)cc2)=C(CN2CCN(c3ccc(C(=O)NS(=O)(=O)c4ccc(N[C@H](CCN5CCOCC5)CSc5ccccc5)c(S(=O)(=O)C(F)(F)F)c4)cc3)CC2)C1 [Navitoclax] (partner 0.5 µM)
- relative viability (COR-L23; first compound 0.0002 µM): 0.899
- relative viability (COR-L23; first compound 0.000632 µM): 0.939
- relative viability (COR-L23; first compound 0.002 µM): 0.373
- relative viability (COR-L23; first compound 0.006325 µM): 0.0756
- relative viability (COR-L23; first compound 0.02 µM): 0.0656
- relative viability (ChaGo-K-1; first compound 0.0002 µM): 1.02
- relative viability (ChaGo-K-1; first compound 0.000632 µM): 0.597
- relative viability (ChaGo-K-1; first compound 0.002 µM): 0.485
- relative viability (ChaGo-K-1; first compound 0.006325 µM): 0.429
- relative viability (ChaGo-K-1; first compound 0.02 µM): 0.232
- relative viability (EMC-BAC-2; first compound 0.0002 µM): 1.14
- relative viability (EMC-BAC-2; first compound 0.000632 µM): 1.11
- relative viability (EMC-BAC-2; first compound 0.002 µM): 0.735
- relative viability (EMC-BAC-2; first compound 0.006325 µM): 0.272
- relative viability (EMC-BAC-2; first compound 0.02 µM): 0.148
- relative viability (HARA; first compound 0.0002 µM): 1.08
- relative viability (HARA; first compound 0.000632 µM): 0.912
- relative viability (HARA; first compound 0.002 µM): 0.156
- relative viability (HARA; first compound 0.006325 µM): 0.107
- relative viability (HARA; first compound 0.02 µM): 0.0621
- relative viability (HCC-15; first compound 0.0002 µM): 0.636
- relative viability (HCC-15; first compound 0.000632 µM): 0.372
- relative viability (HCC-15; first compound 0.002 µM): 0.221
- relative viability (HCC-15; first compound 0.006325 µM): 0.161
- relative viability (HCC-15; first compound 0.02 µM): 0.0988
- relative viability (HCC-366; first compound 0.0002 µM): 1.03
- relative viability (HCC-366; first compound 0.000632 µM): 0.969
- relative viability (HCC-366; first compound 0.002 µM): 0.0411
- relative viability (HCC-366; first compound 0.006325 µM): 0.0211
- relative viability (HCC-366; first compound 0.02 µM): 0.0135
- relative viability (HCC-78; first compound 0.0002 µM): 0.75
- relative viability (HCC-78; first compound 0.000632 µM): 0.455
- relative viability (HCC-78; first compound 0.002 µM): 0.244
- relative viability (HCC-78; first compound 0.006325 µM): 0.242
- relative viability (HCC-78; first compound 0.02 µM): 0.158
- relative viability (HOP-62; first compound 0.0002 µM): 0.878
- relative viability (HOP-62; first compound 0.000632 µM): 0.552
- relative viability (HOP-62; first compound 0.002 µM): 0.312
- relative viability (HOP-62; first compound 0.02 µM): 0.0795
- relative viability (LC-2-ad; first compound 0.0002 µM): 0.237
- relative viability (LC-2-ad; first compound 0.000632 µM): 0.18
- relative viability (LC-2-ad; first compound 0.002 µM): 0.114
- relative viability (LC-2-ad; first compound 0.006325 µM): 0.0942
- relative viability (LC-2-ad; first compound 0.02 µM): 0.0914
- relative viability (NCI-H1395; first compound 0.0002 µM): 1.15
- relative viability (NCI-H1395; first compound 0.000632 µM): 1.1
- relative viability (NCI-H1395; first compound 0.002 µM): 0.895
- relative viability (NCI-H1395; first compound 0.006325 µM): 0.394
- relative viability (NCI-H1395; first compound 0.02 µM): 0.357
- relative viability (NCI-H1793; first compound 0.0002 µM): 0.337
- relative viability (NCI-H1793; first compound 0.000632 µM): 0.432
- relative viability (NCI-H1793; first compound 0.002 µM): 0.292
- relative viability (NCI-H1793; first compound 0.006325 µM): 0.228
- relative viability (NCI-H1793; first compound 0.02 µM): 0.131
- relative viability (NCI-H1944; first compound 0.0002 µM): 1.07
- relative viability (NCI-H1944; first compound 0.000632 µM): 1.05
- relative viability (NCI-H1944; first compound 0.002 µM): 0.942
- relative viability (NCI-H1944; first compound 0.006325 µM): 0.297
- relative viability (NCI-H1944; first compound 0.02 µM): 0.155
- relative viability (NCI-H1993; first compound 0.0002 µM): 0.945
- relative viability (NCI-H1993; first compound 0.000632 µM): 0.873
- relative viability (NCI-H1993; first compound 0.002 µM): 0.703
- relative viability (NCI-H1993; first compound 0.006325 µM): 0.554
- relative viability (NCI-H1993; first compound 0.02 µM): 0.436
- relative viability (NCI-H2023; first compound 0.0002 µM): 1.01
- relative viability (NCI-H2023; first compound 0.000632 µM): 0.995
- relative viability (NCI-H2023; first compound 0.002 µM): 0.176
- relative viability (NCI-H2023; first compound 0.006325 µM): 0.168
- relative viability (NCI-H2023; first compound 0.02 µM): 0.0908
- relative viability (NCI-H2126; first compound 0.0002 µM): 0.873
- relative viability (NCI-H2126; first compound 0.000632 µM): 0.954
- relative viability (NCI-H2126; first compound 0.002 µM): 0.735
- relative viability (NCI-H2126; first compound 0.006325 µM): 0.334
- relative viability (NCI-H2126; first compound 0.02 µM): 0.227
- relative viability (NCI-H2228; first compound 0.0002 µM): 0.854
- relative viability (NCI-H2228; first compound 0.000632 µM): 0.35
- relative viability (NCI-H2228; first compound 0.002 µM): 0.156
- relative viability (NCI-H2228; first compound 0.006325 µM): 0.114
- relative viability (NCI-H2228; first compound 0.02 µM): 0.056
- relative viability (NCI-H23; first compound 0.0002 µM): 0.876
- relative viability (NCI-H23; first compound 0.000632 µM): 0.741
- relative viability (NCI-H23; first compound 0.002 µM): 0.514
- relative viability (NCI-H23; first compound 0.006325 µM): 0.242
- relative viability (NCI-H2405; first compound 0.0002 µM): 0.907
- relative viability (NCI-H2405; first compound 0.000632 µM): 0.543
- relative viability (NCI-H2405; first compound 0.002 µM): 0.313
- relative viability (NCI-H2405; first compound 0.006325 µM): 0.203
- relative viability (NCI-H2405; first compound 0.02 µM): 0.119
- relative viability (NCI-H838; first compound 0.0002 µM): 1.15
- relative viability (NCI-H838; first compound 0.000632 µM): 1.22
- relative viability (NCI-H838; first compound 0.002 µM): 0.29
- relative viability (NCI-H838; first compound 0.006325 µM): 0.176
- relative viability (NCI-H838; first compound 0.02 µM): 0.135
- relative viability (SK-LU-1; first compound 0.0002 µM): 0.721
- relative viability (SK-LU-1; first compound 0.000632 µM): 0.454
- relative viability (SK-LU-1; first compound 0.002 µM): 0.141
- relative viability (SK-LU-1; first compound 0.006325 µM): 0.215
- relative viability (SK-LU-1; first compound 0.02 µM): 0.112
